For assay [1], the target named is T1, Tyrosinase (Agaricus bisporus) (UniProt O42713).
T1 sequence (whole entry): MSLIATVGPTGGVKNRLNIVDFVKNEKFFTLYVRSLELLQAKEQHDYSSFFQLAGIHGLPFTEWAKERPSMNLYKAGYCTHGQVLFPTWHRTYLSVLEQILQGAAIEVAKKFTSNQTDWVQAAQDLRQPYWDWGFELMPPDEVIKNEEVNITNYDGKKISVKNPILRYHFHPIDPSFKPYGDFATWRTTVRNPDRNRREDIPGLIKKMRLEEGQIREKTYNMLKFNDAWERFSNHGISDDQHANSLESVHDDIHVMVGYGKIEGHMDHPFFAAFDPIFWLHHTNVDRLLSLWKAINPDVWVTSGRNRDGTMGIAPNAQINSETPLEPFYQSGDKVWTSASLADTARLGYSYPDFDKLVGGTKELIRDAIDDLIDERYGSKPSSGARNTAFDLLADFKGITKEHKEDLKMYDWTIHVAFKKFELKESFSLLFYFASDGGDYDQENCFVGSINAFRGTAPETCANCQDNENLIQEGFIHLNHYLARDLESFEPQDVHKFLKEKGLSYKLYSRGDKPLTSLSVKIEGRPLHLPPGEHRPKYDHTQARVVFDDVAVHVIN
As to the kind of experiment: Inhibition of mushroom tyrosinase at 50 uM preincubated for 5 mins before addition of L-DOPA measured after 10 mins.

The next assay addresses T2, Tyrosinase (Agaricus bisporus, UniProt O42713).
T2 sequence (O42713 whole entry): T1 sequence (whole entry)

pIC50: −log10 of the molar value. Activity calls are given as the source filed them. No cut-off for these calls is given here.

For `Clc1ccccc1-c1nnc2sc(-c3nccc4ccccc34)nn12`, the inhibition entry in assay [1] is “inactive”. As a reminder, the pIC50 is the IC50 on a negative log10 scale, so that one unit is a factor of ten. A high value points to a small IC50. With `S=c1oc(Cc2cccc3ccccc23)nn1CN1CCNCC1`, on Tyrosinase, the pIC50 was 6.06. Consider `Clc1ccccc1-c1nnc(SCCN2CCOCC2)o1`, for which, in assay [1], the inhibition result is “inactive”. The same measure, in the same setting: with `Cc1cc(C)n(-c2ccc(-c3nn4c(-c5ccccc5)nnc4s3)cc2)n1` the entry was “inactive”; with `c1ccc2c(Cc3nnc4sc(-c5nccc6ccccc56)nn34)cccc2c1`, “inactive”. At Tyrosinase, `S=c1oc(Cc2cccc3ccccc23)nn1CN1CCCCC1` had a pIC50 of 6.01. Regarding `c1ccc(-c2nnc3sc(-c4nccc5ccccc45)nn23)cc1`, the inhibition entry in assay [1] is “inactive”. In turn, `S=c1oc(Cc2cccc3ccccc23)nn1CN1CCCC1` showed a pIC50 on Tyrosinase of 5.88. Consider `c1ccc(-c2nnc(SCCN3CCCCC3)o2)cc1`, for which the inhibition result in assay [1] was “inactive”. Take `CN1CCN(Cn2nc(Cc3cccc4ccccc34)oc2=S)CC1`: at Tyrosinase, the pIC50 is 5.83. Regarding `S=c1oc(Cc2cccc3ccccc23)nn1CN1CCOCC1`, the pIC50 on Tyrosinase is 5.87. As to `Cc1cc(C)n(-c2ccc(-c3nn4c(-c5ccccc5Cl)nnc4s3)cc2)n1`, the inhibition entry in assay [1] is “inactive”. On the same count and under the same terms, next, `Clc1ccccc1-c1nnc2sc(-c3cccnc3)nn12`: “inactive”; `c1ccc2c(Cc3nnc(SCCN4CCCCC4)o3)cccc2c1`: “inactive”; `Clc1ccccc1-c1nnc(SCCN2CCCCC2)o1`: “inactive”. On the same count and under the same terms, next, `Cc1cc(C)n(-c2ccc(-c3nn4c(Cc5cccc6ccccc56)nnc4s3)cc2)n1`: “inactive”.
